Measured values as given in US8192962B2, “Processes for detecting toxic substances” (Daikin Industries, Ltd., priority 2001, dated 2012).

System: Genes belonging to other category
Experiment: DNA chip mRNA expression in yeast, genes belonging to other category (Table 9)
Type: cell-based, Saccharomyces cerevisiae S288C
Procedure, shortened: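 Untreated cultures served as reference for log-phase S288C yeast given a growth-inhibiting, non-lethal toxicant dose for 2 h at 25° C. in YPD. Gene expression was measured on a whole-genome DNA chip from Cy3/Cy5-labeled cDNA.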

SMILES: N#Cc1c(Cl)c(Cl)c(Cl)c(C#N)c1Cl [(9), 2,4,5,6-tetrachloro-1,3-benzenedicarbonitrile]
- The level of expressed mRNA in the presence of chemical substance/The level of expressed mRNA in the absence of chemical substance (yeast gene YMR297W): 1.9
- The level of expressed mRNA in the presence of chemical substance/The level of expressed mRNA in the absence of chemical substance (yeast gene YMR314W): 5.9
- The level of expressed mRNA in the presence of chemical substance/The level of expressed mRNA in the absence of chemical substance (yeast gene YNL006W): 4.0
- The level of expressed mRNA in the presence of chemical substance/The level of expressed mRNA in the absence of chemical substance (yeast gene YNL007C): 3.0
- The level of expressed mRNA in the presence of chemical substance/The level of expressed mRNA in the absence of chemical substance (yeast gene YNL036W): 6.6
- The level of expressed mRNA in the presence of chemical substance/The level of expressed mRNA in the absence of chemical substance (yeast gene YNL039W): 2.1
- The level of expressed mRNA in the presence of chemical substance/The level of expressed mRNA in the absence of chemical substance (yeast gene YNL093W): 1.7
- The level of expressed mRNA in the presence of chemical substance/The level of expressed mRNA in the absence of chemical substance (yeast gene YNL147W): 2.1
- The level of expressed mRNA in the presence of chemical substance/The level of expressed mRNA in the absence of chemical substance (yeast gene YNL214W): 1.5
- The level of expressed mRNA in the presence of chemical substance/The level of expressed mRNA in the absence of chemical substance (yeast gene YNL333W): 2.3
- The level of expressed mRNA in the presence of chemical substance/The level of expressed mRNA in the absence of chemical substance (yeast gene YNR010W): 1.7
- The level of expressed mRNA in the presence of chemical substance/The level of expressed mRNA in the absence of chemical substance (yeast gene YNR037C): 1.3
- The level of expressed mRNA in the presence of chemical substance/The level of expressed mRNA in the absence of chemical substance (yeast gene YNR069C): 5.5
- The level of expressed mRNA in the presence of chemical substance/The level of expressed mRNA in the absence of chemical substance (yeast gene YOL013C): 0.8
- The level of expressed mRNA in the presence of chemical substance/The level of expressed mRNA in the absence of chemical substance (yeast gene YOL164W): 4.9
- The level of expressed mRNA in the presence of chemical substance/The level of expressed mRNA in the absence of chemical substance (yeast gene YOR036W): 1.2
- The level of expressed mRNA in the presence of chemical substance/The level of expressed mRNA in the absence of chemical substance (yeast gene YOR058C): 6.4
- The level of expressed mRNA in the presence of chemical substance/The level of expressed mRNA in the absence of chemical substance (yeast gene YOR069W): 1.9
- The level of expressed mRNA in the presence of chemical substance/The level of expressed mRNA in the absence of chemical substance (yeast gene YOR117W): 3.5
- The level of expressed mRNA in the presence of chemical substance/The level of expressed mRNA in the absence of chemical substance (yeast gene YOR124C): 2.0
- The level of expressed mRNA in the presence of chemical substance/The level of expressed mRNA in the absence of chemical substance (yeast gene YOR132W): 2.8
- The level of expressed mRNA in the presence of chemical substance/The level of expressed mRNA in the absence of chemical substance (yeast gene YOR134W): 1.5
- The level of expressed mRNA in the presence of chemical substance/The level of expressed mRNA in the absence of chemical substance (yeast gene YOR149C): 0.4
- The level of expressed mRNA in the presence of chemical substance/The level of expressed mRNA in the absence of chemical substance (yeast gene YOR157C): 5.7
- The level of expressed mRNA in the presence of chemical substance/The level of expressed mRNA in the absence of chemical substance (yeast gene YOR165W): 0.8
- The level of expressed mRNA in the presence of chemical substance/The level of expressed mRNA in the absence of chemical substance (yeast gene YOR181W): 0.6
- The level of expressed mRNA in the presence of chemical substance/The level of expressed mRNA in the absence of chemical substance (yeast gene YOR185C): 1.9
- The level of expressed mRNA in the presence of chemical substance/The level of expressed mRNA in the absence of chemical substance (yeast gene YOR198C): 2.4
- The level of expressed mRNA in the presence of chemical substance/The level of expressed mRNA in the absence of chemical substance (yeast gene YOR256C): 2.7
- The level of expressed mRNA in the presence of chemical substance/The level of expressed mRNA in the absence of chemical substance (yeast gene YOR259C): 2.7
- The level of expressed mRNA in the presence of chemical substance/The level of expressed mRNA in the absence of chemical substance (yeast gene YOR261C): 5.5
- The level of expressed mRNA in the presence of chemical substance/The level of expressed mRNA in the absence of chemical substance (yeast gene YOR285W): 4.0
- The level of expressed mRNA in the presence of chemical substance/The level of expressed mRNA in the absence of chemical substance (yeast gene YOR288C): 0.9
- The level of expressed mRNA in the presence of chemical substance/The level of expressed mRNA in the absence of chemical substance (yeast gene YOR327C): 1.4
- The level of expressed mRNA in the presence of chemical substance/The level of expressed mRNA in the absence of chemical substance (yeast gene YOR355W): 0.1
- The level of expressed mRNA in the presence of chemical substance/The level of expressed mRNA in the absence of chemical substance (yeast gene YOR362C): 4.3
- The level of expressed mRNA in the presence of chemical substance/The level of expressed mRNA in the absence of chemical substance (yeast gene YOR383C): 1.2
- The level of expressed mRNA in the presence of chemical substance/The level of expressed mRNA in the absence of chemical substance (yeast gene YPL001W): 0.7
- The level of expressed mRNA in the presence of chemical substance/The level of expressed mRNA in the absence of chemical substance (yeast gene YPL018W): 1.4
- The level of expressed mRNA in the presence of chemical substance/The level of expressed mRNA in the absence of chemical substance (yeast gene YPL020C): 2.3
- The level of expressed mRNA in the presence of chemical substance/The level of expressed mRNA in the absence of chemical substance (yeast gene YPL089C): 0.4
- The level of expressed mRNA in the presence of chemical substance/The level of expressed mRNA in the absence of chemical substance (yeast gene YPL109C): 1.2
- The level of expressed mRNA in the presence of chemical substance/The level of expressed mRNA in the absence of chemical substance (yeast gene YPL149W): 5.6
- The level of expressed mRNA in the presence of chemical substance/The level of expressed mRNA in the absence of chemical substance (yeast gene YPL154C): 2.8
- The level of expressed mRNA in the presence of chemical substance/The level of expressed mRNA in the absence of chemical substance (yeast gene YPR066W): 2.3
- The level of expressed mRNA in the presence of chemical substance/The level of expressed mRNA in the absence of chemical substance (yeast gene YPR081C): 4.2
- The level of expressed mRNA in the presence of chemical substance/The level of expressed mRNA in the absence of chemical substance (yeast gene YPR086W): 3.0
- The level of expressed mRNA in the presence of chemical substance/The level of expressed mRNA in the absence of chemical substance (yeast gene YPR103W): 5.5
- The level of expressed mRNA in the presence of chemical substance/The level of expressed mRNA in the absence of chemical substance (yeast gene YPR107C): 2.4
- The level of expressed mRNA in the presence of chemical substance/The level of expressed mRNA in the absence of chemical substance (yeast gene YPR108W): 3.7
